Where two headings read alike, the source gives them in different places.

Assay [1] addresses T1, PMM/PGM (Pseudomonas aeruginosa, UniProt P26276, S108C).
T1 construct: gene algC
Put plainly: biochemical.

Assay [2] has as its target T1, PMM/PGM. The conditions noted are these: read-out: Apparent dissociation constant; 50 mM MOPS pH 7.4, 1 mM MgCl2, 310 K; unphosphorylated enzyme.

T1 sequence (P26276 whole entry S108C): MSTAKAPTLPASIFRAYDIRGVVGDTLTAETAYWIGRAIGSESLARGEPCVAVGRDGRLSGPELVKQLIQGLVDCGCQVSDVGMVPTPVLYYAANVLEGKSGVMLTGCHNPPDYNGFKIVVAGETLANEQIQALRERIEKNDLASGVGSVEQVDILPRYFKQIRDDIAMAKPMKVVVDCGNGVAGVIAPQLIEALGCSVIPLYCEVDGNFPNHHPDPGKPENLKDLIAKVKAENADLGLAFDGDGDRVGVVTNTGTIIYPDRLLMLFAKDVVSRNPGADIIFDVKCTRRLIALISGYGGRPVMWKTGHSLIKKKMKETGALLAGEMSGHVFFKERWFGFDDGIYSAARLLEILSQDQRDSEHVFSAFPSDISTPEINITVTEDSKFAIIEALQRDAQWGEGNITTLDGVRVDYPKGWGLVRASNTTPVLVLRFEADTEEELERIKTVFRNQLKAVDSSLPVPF

In turn, `O=P(O)(O)O[C@H]1O[C@H](CO)[C@@H](O)[C@H](O)[C@H]1O` [G1P, glucose 1-phosphate] registered a Kd at PMM/PGM [1] of 198 ± 48 µM.
For the compound `O=P(O)(O)OC[C@H]1OC(O)[C@H](O)[C@@H](O)[C@@H]1O` (stereo partly shown) [G6P, glucose 6-phosphate], the Kd on PMM/PGM [2] worked out at 20 ± 7 µM.
`O=P(O)(O)OC[C@H]1O[C@H](OP(=O)(O)O)[C@H](O)[C@@H](O)[C@@H]1O` [G16P, glucose 1,6-bisphosphate] gave a Kd at PMM/PGM [1] of 839 ± 221 µM.
Take `O=P(O)(O)O[C@H]1OC[C@@H](O)[C@H](O)[C@H]1O` [X1P, xylose 1-phosphate]: the Kd on PMM/PGM [1] came out at 11 ± 9 µM.

The values above are taken from paper PMC5509744 (Scientific Reports, 2017).
